The test system of data set [1] is human or rat gliomacyte. The following applies: cited from earlier work.
Data set [2] relates to rat glioma. Kind of data set: Uptake of ^11 C-labelled L-DABA into rat glioma cells in culture. The settings on record: medium with amino acid content close to the biological one, control phosphate-buffered saline, FIG. 7. It is filed as cell-based. How it is done:
Biological applicability of the ^11 C-labelled L-DABA obtained in Example 3 was evaluated. The relationship between concentration of the L-DABA added to culture medium of rat glioma and uptake of radioactivity into the glioma cells in a given duration was investigated in a medium having an amino acid content close to the biological one, and for control, in a physiological saline buffered with phosphoric acid.

The nature of data set [3]: Sterility and exothermic substance check of the filtered ^11 C-labelled glutamic acid product. The settings on record: after sterilized 0.2 μm filter. How it is done:
NaOH of 2.5M was added to a reaction solution containing the γ-cyano-α-aminobutyric acid of which cyano group carbon being labelled with positron nuclide ^11 C, as obtained in Example 6, and temperature of the mixture was raised to 135° C. After the lapse of 15 minutes, the reaction solution was mixed with 8 ml 50 mM NaH2 PO4, and the resultant mixture was passed through an anion exchange resin (800 mg AGI-x8 200-400 mesh hydroxide form). After washing with 50 mM NaH2 PO4 in an amount of 6 ml, the reaction product was eluted with 150 mM NaH2 PO4 (pH adjusted to 2.8 with phosphoric acid), and the elute was received in a receptacle containing 150 μl 8.5% phosphoric acid. The contents were passed through a sterilized filter having a pore diameter of 0.2 μm for collection in bial.

With `NCCC(N)C(=O)O` (stereo not drawn) [2,4-Diaminobutyric acid (DABA), 2,4-Diaminobutyric acid], in data set [1], the incorporation into gliomacyte entry is given as “found to be incorporated into human or rat gliomacyte”.
For `N[11CH2]C[C@H](N)C(=O)O` [^11 C-labelled L-DABA, L-2,4-diaminobutyric acid (L-DABA) labelled with ^11 C], the “uptake of radioactivity into the glioma cells” value in data set [2] is recorded as “dependent on the concentration of it in culture medium”.
For `N[C@@H](CC[11C](=O)O)C(=O)O` [^11 C-labelled glutamic acid], in data set [3], the exothermic substance entry is “no exothermic substance was detected” and the sterility of product entry is given as “germ-free”.
As for `NC(=O)CC[C@H](N)C(=O)O` [L-glutamine], the incorporation into gliomacyte result in data set [1] was “found to be incorporated into human or rat gliomacyte”.
With `N[C@@H](CCC(=O)O)C(=O)O` [L-glutamic acid], the incorporation into gliomacyte result in data set [1] was “found to be incorporated into human or rat gliomacyte”.

Values taken from patent US5847193A, “Labelled compound” (priority 1995, dated 1998).
